Assay results taken from patent US20080090805A1, “CB-1 MODULATING COMPOUNDS AND THEIR USE” (ACADIA PHARMACEUTICALS INC., priority 2005, published 2008).

biological target: CB1 (mutant) (Homo sapiens, UniProt P21554); test: R-SAT functional receptor assay, CB1 (mutant, truncated after amino acid 417); type: cell-based; settings: Appendix A; R-SAT CB1; receptor form (mutant or wild-type) not stated; read-out: pIC50 (converted)
Sequence (P21554 1-417, change not shown): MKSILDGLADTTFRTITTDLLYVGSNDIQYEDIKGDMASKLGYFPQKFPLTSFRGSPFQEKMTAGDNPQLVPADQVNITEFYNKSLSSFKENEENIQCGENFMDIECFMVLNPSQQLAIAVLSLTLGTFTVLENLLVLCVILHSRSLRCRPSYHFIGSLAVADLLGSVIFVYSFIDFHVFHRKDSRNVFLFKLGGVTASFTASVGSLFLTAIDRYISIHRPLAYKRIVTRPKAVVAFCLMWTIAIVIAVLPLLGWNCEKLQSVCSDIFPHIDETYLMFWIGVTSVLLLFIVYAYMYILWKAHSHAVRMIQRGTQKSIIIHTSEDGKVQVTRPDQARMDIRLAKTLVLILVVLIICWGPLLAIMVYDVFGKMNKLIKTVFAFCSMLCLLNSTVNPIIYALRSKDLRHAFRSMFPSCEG

IC50 | SMILES
316 nM | COCCNC(=O)c1ccc2c(c1)N=C(c1ccc(Cl)cc1Cl)c1ccccc1S2
3.98 nM | O=C(NCCCc1ccccc1)c1ccc2c(c1)N=C(c1cccc(Cl)c1)c1ccccc1S2 [drawing 615]
39.8 nM | O=C(NN1CCCCC1)c1ccc2c(c1)N=C(c1cccc(Cl)c1)c1ccccc1S2 [drawing 1127]
20 nM | CCCCNC(=O)c1ccc2c(c1)N=C(C1CCCCC1)c1ccccc1S2 [drawing 937]
2510 nM | CCCC1=Nc2cc(C(=O)N3CCN(C(=O)c4ccco4)CC3)ccc2Sc2ccccc21
31.6 nM | Cc1ccc(CNC(=O)c2ccc3c(c2)N=C(c2ccc(Cl)cc2F)c2ccccc2S3)o1 [drawing 1039]
251 nM | CCCC1=Nc2cc(C(=O)NCCc3ccc(SC)cc3)ccc2Sc2ccccc21
31.6 nM | CC(C)NC(=O)c1ccc2c(c1)N=C(c1ccc(F)cc1)c1ccccc1S2 [drawing 1079]
10 nM | O=C(NCCc1cccc(Cl)c1)c1ccc2c(c1)N=C(c1cccc(Cl)c1)c1ccccc1S2 [drawing 779]
1000 nM | Cc1cccnc1C1=Nc2cc(C(=O)NC3CCCC3)ccc2Sc2ccccc21
200 nM | CC(C)CC1=Nc2cc(C(=O)NN3CCCCC3)ccc2Sc2ccccc21
2.51 nM | O=C(NCCc1ccc(Cl)cc1)c1ccc2c(c1)N=C(c1cccc(Cl)c1)c1ccccc1S2 [drawing 569]
200 nM | CCCC1=Nc2cc(C(=O)NCCOC)ccc2Sc2ccccc21
10 nM | O=C(NCc1ccccc1)c1ccc2c(c1)N=C(c1ccccc1)c1ccccc1S2 [drawing 755]
> 5010 nM | Cc1cccnc1C1=Nc2cc(C(=O)NCCc3cccnc3)ccc2Sc2ccccc21
158 nM | CCCC1=Nc2cc(C(=O)NN3CCCCC3)ccc2Sc2ccccc21
6.31 nM | O=C(NCc1ccco1)c1ccc2c(c1)N=C(c1ccc(Cl)c(Cl)c1)c1ccccc1S2 [drawing 691]
1580 nM | CON(C)C(=O)c1ccc2c(c1)N=C(c1ccc(Cl)cc1F)c1ccccc1S2
31.6 nM | O=C(NCc1cccc(Cl)c1)c1ccc2c(c1)N=C(c1ccccc1F)c1ccccc1S2 [drawing 1083]
3.98 nM | Cc1ccsc1C1=Nc2cc(C(=O)NCCCC(F)(F)F)ccc2Sc2ccccc21 [drawing 599]
3.16 nM | CC(CNC(=O)c1ccc2c(c1)N=C(c1cccc(Cl)c1)c1ccccc1S2)c1ccccc1 (stereo not drawn) [drawing 587]
100 nM | CCCC1=Nc2cc(C(=O)NC(C)CC)ccc2Sc2ccccc21 (stereo not drawn)
12.6 nM | Cc1cccc(C2=Nc3cc(C(=O)NCCC(F)(F)F)ccc3Sc3ccccc32)n1 [drawing 815]
79.4 nM | O=C(NCCc1cccc(Cl)c1)c1ccc2c(c1)N=C(c1ccccc1F)c1ccccc1S2 [drawing 736]
31.6 nM | O=C(NCCc1ccncc1)c1ccc2c(c1)N=C(c1ccc(Cl)c(Cl)c1)c1ccccc1S2 [drawing 1095]
15.8 nM | CCCCNC(=O)c1ccc2c(c1)N=C(c1ccccn1)c1ccccc1S2 [drawing 907]
39.8 nM | CC(NC(=O)c1ccc2c(c1)N=C(c1ccccc1)c1ccccc1S2)c1ccccc1 (stereo not drawn) [drawing 1147]
7.94 nM | C[C@@H]1CCC[C@H](C)N1NC(=O)c1ccc2c(c1)N=C(c1cccc(F)c1)c1ccccc1S2 [drawing 727]

SMILES | IC50
CCCNC1=Nc2cc(C(=O)NN3CCCCC3)ccc2Sc2ccccc21 | 1580 nM

same assay, conditions: Appendix A; R-SAT CB1; receptor form not stated; relative to SR141716 (100%); read-out: % Inhibition

Emax | SMILES
69% | COCCNC(=O)c1ccc2c(c1)N=C(c1ccc(Cl)cc1Cl)c1ccccc1S2
110% | O=C(NCCCc1ccccc1)c1ccc2c(c1)N=C(c1cccc(Cl)c1)c1ccccc1S2 [drawing 615]
106% | O=C(NN1CCCCC1)c1ccc2c(c1)N=C(c1cccc(Cl)c1)c1ccccc1S2 [drawing 1127]
106% | CCCCNC(=O)c1ccc2c(c1)N=C(C1CCCCC1)c1ccccc1S2 [drawing 937]
88% | CCCC1=Nc2cc(C(=O)N3CCN(C(=O)c4ccco4)CC3)ccc2Sc2ccccc21
76% | Cc1ccc(CNC(=O)c2ccc3c(c2)N=C(c2ccc(Cl)cc2F)c2ccccc2S3)o1 [drawing 1039]
103% | CCCC1=Nc2cc(C(=O)NCCc3ccc(SC)cc3)ccc2Sc2ccccc21
97% | CC(C)NC(=O)c1ccc2c(c1)N=C(c1ccc(F)cc1)c1ccccc1S2 [drawing 1079]
107% | O=C(NCCc1cccc(Cl)c1)c1ccc2c(c1)N=C(c1cccc(Cl)c1)c1ccccc1S2 [drawing 779]
57% | Cc1cccnc1C1=Nc2cc(C(=O)NC3CCCC3)ccc2Sc2ccccc21
90% | CC(C)CC1=Nc2cc(C(=O)NN3CCCCC3)ccc2Sc2ccccc21
106% | O=C(NCCc1ccc(Cl)cc1)c1ccc2c(c1)N=C(c1cccc(Cl)c1)c1ccccc1S2 [drawing 569]
107% | CCCC1=Nc2cc(C(=O)NCCOC)ccc2Sc2ccccc21
111% | O=C(NCc1ccccc1)c1ccc2c(c1)N=C(c1ccccc1)c1ccccc1S2 [drawing 755]
28% | Cc1cccnc1C1=Nc2cc(C(=O)NCCc3cccnc3)ccc2Sc2ccccc21
40% | CCCCN(C)C(=O)c1ccc2c(c1)N=C(c1ccccc1Cl)c1ccccc1S2
80% | CCCC1=Nc2cc(C(=O)NN3CCCCC3)ccc2Sc2ccccc21

Emax | SMILES
61% | O=C(NCc1ccc(F)cc1)c1ccc2c(c1)N=C(c1ccc(F)cc1)c1ccccc1N2
97% | O=C(NCc1ccco1)c1ccc2c(c1)N=C(c1ccc(Cl)c(Cl)c1)c1ccccc1S2 [drawing 691]
46% | CON(C)C(=O)c1ccc2c(c1)N=C(c1ccc(Cl)cc1F)c1ccccc1S2
1% | CCOCCNC(=O)c1ccc2c(c1)N=C(NCc1ccc(Cl)cc1)c1ccccc1S2
99% | O=C(NCc1cccc(Cl)c1)c1ccc2c(c1)N=C(c1ccccc1F)c1ccccc1S2 [drawing 1083]
111% | Cc1ccsc1C1=Nc2cc(C(=O)NCCCC(F)(F)F)ccc2Sc2ccccc21 [drawing 599]
112% | CC(CNC(=O)c1ccc2c(c1)N=C(c1cccc(Cl)c1)c1ccccc1S2)c1ccccc1 (stereo not drawn) [drawing 587]
105% | CCCC1=Nc2cc(C(=O)NC(C)CC)ccc2Sc2ccccc21 (stereo not drawn)
98% | CCCC1=Nc2cc(C(=O)NCCN3CCOCC3)ccc2Sc2ccccc21
93% | Cc1cccc(C2=Nc3cc(C(=O)NCCC(F)(F)F)ccc3Sc3ccccc32)n1 [drawing 815]
81% | O=C(NNCC(F)(F)F)c1ccc2c(c1)N=C(c1ccc(Cl)cc1)c1ccccc1S2 [drawing 816]
91% | O=C(NCCc1cccc(Cl)c1)c1ccc2c(c1)N=C(c1ccccc1F)c1ccccc1S2 [drawing 736]
119% | O=C(NCCc1ccncc1)c1ccc2c(c1)N=C(c1ccc(Cl)c(Cl)c1)c1ccccc1S2 [drawing 1095]
100% | CCCCNC(=O)c1ccc2c(c1)N=C(c1ccccn1)c1ccccc1S2 [drawing 907]
85% | CC(NC(=O)c1ccc2c(c1)N=C(c1ccccc1)c1ccccc1S2)c1ccccc1 (stereo not drawn) [drawing 1147]
120% | C[C@@H]1CCC[C@H](C)N1NC(=O)c1ccc2c(c1)N=C(c1cccc(F)c1)c1ccccc1S2 [drawing 727]

SMILES | Emax
CCCC1=Nc2cc(C(=O)NCc3ccccc3OC)ccc2Sc2ccccc21 | 91%
O=C(NN1CCCCCC1)c1ccc2c(c1)N=C(c1cccc(F)c1)c1ccccc1S2 [drawing 697] | 106%
O=C(NCc1ccncc1)c1ccc2c(c1)N=C(c1ccc(Br)cc1)c1ccccc1S2 [drawing 586] | 84%
CCCNC1=Nc2cc(C(=O)NN3CCCCC3)ccc2Sc2ccccc21 | 89%

same assay, conditions: pIC50, Appendix A; R-SAT CB1; receptor form (mutant or wild-type) not stated

SMILES | IC50
CCCC1=Nc2cc(C(=O)NCc3ccccc3OC)ccc2Sc2ccccc21 | 63.1 nM
O=C(NN1CCCCCC1)c1ccc2c(c1)N=C(c1cccc(F)c1)c1ccccc1S2 [drawing 697] | 7.94 nM
O=C(NCc1ccncc1)c1ccc2c(c1)N=C(c1ccc(Br)cc1)c1ccccc1S2 [drawing 586] | 50.1 nM
